# From patent publication US20060147548A1, “Therapeutic delivery of carbon monoxide” (priority 2002, published 2006)
# Columns and labels:
# [1] = tested on: isolated aortic rings pre-contracted with phenylephrine; experiment: Relaxation of isolated rat aortic rings pre-contracted with phenylephrine; type: cell-based; details: for relaxation as percentage of the maximal phenylephrine-mediated contraction: Example 1; for percentage of relaxation: Example 4A, 100 μM CORM-3
# Protocol: The method for the preparation of isolated aortic rings has been previously described (5; 7). The thoracic aorta was isolated from Sprague-Dawley rats (350-450 g) and flushed with cold Krebs-Henseleit buffer (4° C., pH 7.4) containing (in mM): 118 NaCl, 4.7 KCl, 1.2 KH2PO4, 1.2 MgSO4.7H2O, 22 NaHCO3, 11 Glucose, 0.03 K^+EDTA, 2.5 CaCl2 and supplemented with 10 AM indomethacin. Each aorta was trimmed of adventitial tissue and ring sections (˜3 mm length) were produced from the mid aortic segment. The rings were then mounted between two stainless steel hooks in 9-ml organ baths containing Krebs-Henseleit buffer which was maintained at 37° C. and continuously gassed with 95% O2-5% CO2. One hook was attached to a Grass FT03 isometric force transducer whilst the other was anchored to a sledge for regulation of the resting tension of the aortic ring. The rings were initially equilibrated for 30 min under a resting tension of 2 g which was previously determined to be optimal. Continuous recording of tension was made on a Grass 7D polygraph (Grass Instruments, Quincy, Mass.) in combination with a Biopac MP100 system using AcqKnowledge™ software (Linton Instruments, Norfolk, UK). Before each protocol was carried out, rings were contracted with a standard dose of KCl (100 mM) in order to provide an internal reference and to control for variability in contractile responsiveness between tissues.
# The preparation of isolated aortic rings and recording of tension was as in Example 1. Before each protocol was carried out, rings were contracted with a standard dose of KCl (100 mM) in order-to provide an internal reference and to control for variability in contractile responsiveness between tissues. […] An additional set of experiments was performed in which the vascular endothelium was removed from the aortic tissue prior to CORM-3 addition.
# Lewis rats = experiment: Effect on mean arterial pressure in anaesthetised rats; type: in vivo, rat
# Protocol: Lewis rats (280-350 g) were anaesthetised by intramuscular injection of 1 ml/kg Hypnorm. Specially designed femoral artery and venous catheters were then surgically implanted as previously described (5; 6) and blood pressure monitored continuously using a polygraph recorder.
# Myoglobin (Mb) [2] = experiment: Conversion of myoglobin (Mb) to carbon monoxide myoglobin (MbCO), CO release; type: biochemical; details: for conversion of Mb to MbCO: Mb 50 μM, absorption spectrum
# Excerpt: This method has been previously developed to monitor and determine the amount of CO released from CO-RMs (7).
# [3] = target: T1, purified guanylate cyclase (Bos taurus, UniProt P16068); details: in vitro; literature reference (8); cited from earlier work
# T1 sequence (P16068 1-619): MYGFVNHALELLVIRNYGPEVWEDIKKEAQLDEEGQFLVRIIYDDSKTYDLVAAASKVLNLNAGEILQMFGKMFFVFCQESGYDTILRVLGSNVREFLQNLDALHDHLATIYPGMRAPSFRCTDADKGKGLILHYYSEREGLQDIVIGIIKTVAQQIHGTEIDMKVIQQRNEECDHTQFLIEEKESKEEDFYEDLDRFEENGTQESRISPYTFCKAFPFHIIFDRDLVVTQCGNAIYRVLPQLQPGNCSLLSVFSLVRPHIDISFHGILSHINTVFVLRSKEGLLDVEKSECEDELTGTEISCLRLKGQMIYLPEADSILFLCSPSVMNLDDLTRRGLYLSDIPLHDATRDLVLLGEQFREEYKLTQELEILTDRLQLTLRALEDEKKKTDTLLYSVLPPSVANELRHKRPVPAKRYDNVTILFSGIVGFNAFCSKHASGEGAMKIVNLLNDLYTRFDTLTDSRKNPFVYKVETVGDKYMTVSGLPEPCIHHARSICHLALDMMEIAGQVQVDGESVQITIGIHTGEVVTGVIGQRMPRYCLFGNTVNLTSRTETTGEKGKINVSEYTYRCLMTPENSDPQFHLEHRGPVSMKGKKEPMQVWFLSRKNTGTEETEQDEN
# T1 sequence (P19687 1-691 partner): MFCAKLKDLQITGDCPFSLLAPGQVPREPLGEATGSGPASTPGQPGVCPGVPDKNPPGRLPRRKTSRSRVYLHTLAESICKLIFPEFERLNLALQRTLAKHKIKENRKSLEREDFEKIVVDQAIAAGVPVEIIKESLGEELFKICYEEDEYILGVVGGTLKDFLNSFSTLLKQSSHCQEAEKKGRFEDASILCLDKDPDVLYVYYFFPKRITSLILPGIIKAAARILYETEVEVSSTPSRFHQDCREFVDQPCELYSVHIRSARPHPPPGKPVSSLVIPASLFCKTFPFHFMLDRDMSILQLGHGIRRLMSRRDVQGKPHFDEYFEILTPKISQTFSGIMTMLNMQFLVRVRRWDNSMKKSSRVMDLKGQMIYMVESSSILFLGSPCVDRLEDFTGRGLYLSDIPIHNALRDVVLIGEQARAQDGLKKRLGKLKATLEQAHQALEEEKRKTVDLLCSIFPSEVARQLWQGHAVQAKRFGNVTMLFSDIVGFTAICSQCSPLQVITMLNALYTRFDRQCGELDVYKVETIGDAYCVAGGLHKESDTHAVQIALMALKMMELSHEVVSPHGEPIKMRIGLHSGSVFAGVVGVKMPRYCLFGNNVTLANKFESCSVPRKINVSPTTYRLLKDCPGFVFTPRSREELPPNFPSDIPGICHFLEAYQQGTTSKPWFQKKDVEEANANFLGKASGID
# Myoglobin (Mb) [4] = details: stated as known; cited from earlier work
# [5] = tested on: isolated aortic rings pre-contracted with phenylephrine; details: stated as known; species not given; cited from earlier work
# human platelets = details: increased cGMP levels by YC-1 in the presence of CO; literature reference (1); cited from earlier work
compound,measurement,setting,value
"NCC(=O)O.[C-]#[O+].[C-]#[O+].[C-]#[O+].[Cl][Ru] [CORM-3, Ru(CO)3Cl(NH2CH2CO2)]",relaxation as percentage of the maximal phenylephrine-mediated contraction,"[1]; CORM-3 25 μM, after first addition, presence of YC-1 (5 μM, 30 min pre-incubation)",33%
same,relaxation as percentage of the maximal phenylephrine-mediated contraction,"[1]; CORM-3 25 μM, after second addition, presence of YC-1 (5 μM, 30 min pre-incubation)",66.6%
same,relaxation as percentage of the maximal phenylephrine-mediated contraction,"[1]; CORM-3 25 μM, after third addition, presence of YC-1 (5 μM, 30 min pre-incubation)",80.9%
same,relaxation as percentage of the maximal phenylephrine-mediated contraction,"[1]; CORM-3 25 AM per addition, after first addition, absence of YC-1",10.3%
same,relaxation as percentage of the maximal phenylephrine-mediated contraction,"[1]; CORM-3 25 AM per addition, after second addition, absence of YC-1",24.1%
same,relaxation as percentage of the maximal phenylephrine-mediated contraction,"[1]; CORM-3 25 AM per addition, after third addition, absence of YC-1",38%
same,relaxation,"[1]; Example 3, 100 μM, within few minutes from addition",approximately 54%
same,percentage of relaxation,"[1]; first addition, in the presence of ODQ (10 μM, 15 min prior)",1.0±0.8%
same,percentage of relaxation,"[1]; first addition, in the presence of glibenclamide (10 μM, 30 min prior)",13.2±4.1%
same,percentage of relaxation,"[1]; first cumulative addition, mean±S.E.M., 6 experiments",37.5±5.3%
same,percentage of relaxation,"[1]; second cumulative addition, mean±S.E.M., 6 experiments",48.2±4.4%
same,percentage of relaxation,"[1]; third cumulative addition, mean±S.E.M., 6 experiments",53.9±4.3%
same,relaxation,"[1]; Example 4B, 25 μM CORM-3, after the third addition, pre-treatment with YC-1 (1 μM, 30 min)",77%
same,relaxation,"[1]; Example 4B, 25 μM CORM-3 alone, after the third addition",approximately 31%
same,effect of YC-1 on CORM-3-mediated relaxation,"[1]; Example 4B, 50 μM and 100 μM CORM-3, YC-1 1 μM pre-treatment",potentiation of relaxation
same,effect of L-NAME on relaxation at increased CORM-3 concentration,"[1]; Example 4C, CORM-3 200 and 400 μM, L-NAME present",reversed
same,relaxation,"[1]; Example 4C, CORM-3 alone, first addition",approximately 37%
same,relaxation,"[1]; Example 4C, CORM-3 first addition, presence of L-NAME (100 μM) in the organ bath",5%
same,response of aortic rings without the endothelium (−E),"[1]; Example 4C, endothelium removed, unless CORM-3 increased to 400 μM",did not respond to CORM-3 in the same way as intact vessels
same,decrease in MAP,"Lewis rats; CORM-3 30 μmoles/kg i.v. first injection, YC-1 1.2 μmoles/kg i.v. 5 min before",37.0±2.4 mmHg
same,decrease in MAP,"Lewis rats; CORM-3 30 μmoles/kg i.v. second injection, YC-1 1.2 μmoles/kg i.v. 5 min before first injection",22.0±2.3 mmHg
same,decrease in MAP,"Lewis rats; CORM-3 alone 30 μmoles/kg i.v., first injection, recorded 20 min after injection",9.4±2.8 mmHg
same,decrease in MAP,"Lewis rats; CORM-3 alone 30 μmoles/kg i.v., second bolus 20 min after the first",13.3±4.9 mmHg
same,conversion of Mb to MbCO,Myoglobin (Mb) [2],formation of MbCO is observed
same,loss of CO on incubation,Myoglobin (Mb) [2]; incubating overnight at 37° C. in phosphate buffer at pH=7.4,rapidly lost
"[C-]#[O+] [CO, carbon monoxide]",increase of enzymatic activity of purified guanylate cyclase,[3],4.4 fold
same,conversion of Mb to MbCO,Myoglobin (Mb) [2],rapid conversion to carbon monoxide myoglobin (MbCO)
"[Fe(SPh)2(2,2′-bipyridine) (CO)2]",release of CO to myoglobin in solution,Myoglobin (Mb) [4],does not release CO to myoglobin in solution
same,dilatation of pre-contracted aortic rings,[5],capable of promoting dilatation of pre-contracted aortic rings
"OCc1ccc(-c2nn(Cc3ccccc3)c3ccccc23)o1 [YC-1, 3-(5′-hydroxymethyl-2′-furyl)-1-benzyl-indazole, reference compound]",inhibition of platelet aggregation,human platelets,complete inhibition of platelet aggregation
same,change in vessel contractility,"[1]; Example 4B, pre-treatment with YC-1 alone (1 μM, 30 min)",did not cause any significant change in vessel contractility
same,decrease in MAP,"Lewis rats; YC-1 1.2 μmoles/kg i.v., after 5 min, before CORM-3",7.0±1.6 mmHg
"[N]=O [NO, nitric oxide]",increase of enzymatic activity of purified guanylate cyclase,[3],130 fold
